Test system: P388
Assay: Compound was tested for antitumor activity against lymphocytic leukemia P388 cells in mice
Type: functional, Mus musculus
Conditions: not given

For `COc1cc2c(c(OC)c1OC)-c1ccc(OC)c(=O)cc1[C@@H](N(C)C)CC2`, which “Log 1/C” value is on record?
The value was 4.03.

Test system: not listed separately
Assay: physchem
Conditions: octanol/water
Description: Partition coefficient (logP)

Which logP does the source give for `CN[C@H]1CCc2cc(OC)c(OC)c(OC)c2-c2ccc(SC)c(=O)cc21` here?
Its logP is 2.22.

For `CCOC(=O)N[C@H]1CCc2cc(OC)c(OC)c(OC)c2-c2ccc(SC)c(=O)cc21`, which logP is on record?
Its logP is 3.12.

Which logP does the source give for `COc1cc2c(c(OC)c1OC)-c1ccc(SC)c(=O)cc1[C@@H](NC(=O)C(F)(F)F)CC2` here?
Its logP is 2.99.

Which logP does the source give for `COc1cc2c(c(OC)c1OC)-c1ccc(OC)c(=O)cc1[C@@H](NC(=O)c1ccccc1)CC2` here?
Its logP is 2.94.

For `COc1cc2c(c(OC)c1OC)-c1ccc(SC)c(=O)cc1[C@@H](N)CC2`, which logP is on record?
Its logP is 1.73.

For `COc1cc2c(c(OC)c1OC)-c1ccc(S(C)(=O)=O)c(=O)cc1[C@@H](NC(C)=O)CC2`, which logP is on record?
Its logP is -0.58.

With `COc1cc2c(c(OC)c1OC)-c1ccc(SC)c(=O)cc1[C@@H](NC(=O)NCCCl)CC2` as the compound, how does the logP read?
Its logP is 3.53.

With `COc1cc2c(c(OC)c1OC)-c1ccc(OC)c(=O)cc1[C@@H](NC(=O)CCl)CC2` as the compound, how does the logP read?
The logP was 1.71.

Which logP does the source give for `COc1cc2c(c(OC)c1OC)-c1ccc(OC)c(=O)cc1[C@@H](NC(=O)c1ccc([N+](=O)[O-])cc1)CC2` here?
The logP was 2.96.

Which logP does the source give for `COc1cc2c(c(OC)c1OC)-c1ccc(SC)c(=O)cc1[C@@H](NO[C@H]1[C@H](OC(C)=O)[C@@H](OC(C)=O)[C@H](OC(C)=O)O[C@@H]1COC(C)=O)CC2` here?
The logP was 4.61.

With `COc1cc2c(c(OC)c1OC)-c1ccc(SC)c(=O)cc1[C@@H](NC(=O)CCl)CC2` as the compound, how does the logP read?
Its logP is 2.34.

Which logP does the source give for `COc1ccc2c(c1OC)-c1ccc(OC)c(=O)cc1[C@@H](NC(C)=O)CC2` here?
Its logP is 0.93.

For `COc1cc2c(c(OC)c1OC)-c1ccc(SC)c(=O)cc1[C@@H](NC(=O)CO)CC2`, which logP is on record?
Its logP is 1.5.

With `COc1cc2c(c(OC)c1OC)-c1ccc(OC)c(=O)cc1[C@@H](NC(=O)C(F)(F)F)CC2` as the compound, how does the logP read?
The logP was 2.36.

For `COc1cc2c(c(OC)c1OC)-c1ccc([S+](C)[O-])c(=O)cc1[C@@H](NC(C)=O)CC2` (stereo not given in full), which logP is on record?
Its logP is -0.53.

With `COC(=O)C(N)CCCC/N=c1\ccc2c(cc1O)[C@@H](NC(C)=O)CCc1cc(OC)c(OC)c(OC)c1-2` (stereo not given in full) as the compound, how does the logP read?
Its logP is -2.1.

With `COc1cc2c(c(OC)c1OC)-c1ccc(SC)c(=O)cc1[C@@H](NC1C(CO)OC(O)C(O)C1O)CC2` (stereo not given in full) as the compound, how does the logP read?
The logP was 1.25.

For `COc1cc2c(c(OC)c1OC)-c1ccc(OC)c(=O)cc1[C@@H](NC=O)CC2`, which logP is on record?
The logP was 1.02.

Which logP does the source give for `COc1cc2c(c(OC)c1OC)-c1ccc(S(=O)(=O)Cc3ccccc3)c(=O)cc1[C@@H](NC(C)=O)CC2` here?
Its logP is 0.97.

With `COc1cc2c(c(OC)c1OC)-c1ccc(SC)c(=O)cc1[C@@H](NC1COC(O)C(O)C1O)CC2` (stereo not given in full) as the compound, how does the logP read?
Its logP is 1.4.

Which logP does the source give for `COc1cc2c(c(OC)c1OC)-c1cc/c(=N\Cc3ccccc3)c(O)cc1[C@@H](NC(C)=O)CC2` here?
The logP was 2.14.

Which logP does the source give for `COc1cc2c(c(OC)c1OC)-c1ccc(OC)c(=O)cc1[C@@H](NC(=O)CF)CC2` here?
Its logP is 1.19.

Which logP does the source give for `COc1cc2c(c(OC)c1OC)-c1ccc(SCc3ccccc3)c(=O)cc1[C@@H](NC(C)=O)CC2` here?
The logP was 3.21.

For `COc1cc2c(c(OC)c1OC)-c1ccc(OC)c(=O)cc1[C@@H](N(C)C)CC2`, which logP is on record?
The logP was 2.07.

For `CNc1ccc2c(cc1=O)[C@@H](NC(C)=O)CCc1cc(OC)c(OC)c(OC)c1-2`, which logP is on record?
The logP was 0.58.

Which logP does the source give for `COc1cc2c(c(OC)c1OC)-c1ccc(OC)c(=O)cc1[C@@H](NC(C)=O)CC2` [COLCHICINE] here?
Its logP is 1.03.

Which logP does the source give for `COc1cc2c(c(OC)c1OC)-c1ccc(OC)c(=O)cc1[C@@H](N)CC2` [DEACETYLCOLCHICINE] here?
Its logP is 1.1.

With `CN[C@H]1CCc2cc(OC)c(OC)c(OC)c2-c2ccc(OC)c(=O)cc21` [DEMECOLCINE] as the compound, how does the logP read?
Its logP is 1.53.

For `COc1cc2c(c(OC)c1OC)-c1ccc(SC)c(=O)cc1[C@@H](NC(C)=O)CC2` [THIOCOLCHICINE], which logP is on record?
Its logP is 1.66.

— ChEMBL document CHEMBL1121792, “Quantitative structure-activity relationships of colchicines against P388 leukemia in mice” (J Med Chem, 1981)
